Measurements taken from ChEMBL document CHEMBL3508693 (2016).

Tests used:
[1] = AUCspec of aliskiren hemifumarate following 2 week oral dosing of aliskiren hemifumarate at 50 mg.Kg-1 level studied on day 14 in male Callithrix jacchus; assay type: ADME, organism-based, Plasma; conditions: marmoset, in vivo, 336 h
[2] = Cmax/dose of aliskiren hemifumarate following 4 week oral dietary dosing of aliskiren hemifumarate at 2000 mg.Kg-1 level in female mouse; assay type: ADME, organism-based, CB6F1-TGrasH2; conditions: in vivo, 672 h
[3] = AUC(0-24h) of aliskiren hemifumarate following 2 week oral dosing of aliskiren hemifumarate at 50 mg.Kg-1 level studied on day 1 in male Callithrix jacchus; assay type: ADME, organism-based; conditions: marmoset, plasma
[4] = Effect of 2 week oral dosing of aliskiren hemifumarate at 10 mg.Kg-1 level on hematological parameter values in male Callithrix jacchus; assay type: toxicity, organism-based, Plasma; conditions: marmoset, in vivo, 336 h
[5] = Tmax of aliskiren hemifumarate following single dosing of SPP100B oral solution at 160 mg level studied on day 1 in men; assay type: ADME, organism-based; conditions: male, human, plasma
[6] = Effect of 2 week oral dosing of aliskiren hemifumarate at 50 mg.Kg-1 level on hematological parameter values in female Callithrix jacchus; assay type: toxicity, organism-based, Plasma; conditions: marmoset, in vivo, 336 h
[7] = Effect of 4 week oral dietary dosing of aliskiren hemifumarate at 1500 mg.Kg-1 level on spermatogenesis in male mouse; assay type: toxicity, organism-based, CB6F1-TGrasH2, Testis; conditions: in vivo, 672 h
[8] = Tmax of aliskiren hemifumarate following 2 week oral dosing of aliskiren hemifumarate at 10 mg.Kg-1 level studied on day 1 in male Callithrix jacchus; assay type: ADME, organism-based; conditions: marmoset, plasma
[9] = Tmax of aliskiren hemifumarate following 2 week oral dosing of aliskiren hemifumarate at 10 mg.Kg-1 level studied on day 1 in female Callithrix jacchus; assay type: ADME, organism-based; conditions: marmoset, plasma
[10] = Cmax of aliskiren hemifumarate following single dosing of SPP100B oral solution at 160 mg level studied on day 1 in men; assay type: ADME, organism-based; conditions: male, human, plasma
[11] = Cmax/dose of aliskiren hemifumarate following 4 week oral dietary dosing of aliskiren hemifumarate at 1500 mg.Kg-1 level in male mouse; assay type: ADME, organism-based, CB6F1-TGrasH2; conditions: in vivo, 672 h
hERG (KCNH2) = hERG (KCNH2) (Homo sapiens, UniProt Q12809); assay: Effects of 1000 uM aliskiren hemifumarate on current through cloned hERG channel expressed in human embryonic kidney cell; assay type: cell-based; parameters: conc 1000 uM, dose level High; conditions: HEK293 cells that express cloned hERG channel, read-out: Inhibitory activity
[12] = Cmaxspec of aliskiren hemifumarate following 2 week oral dosing of aliskiren hemifumarate at 50 mg.Kg-1 level studied on day 1 in male Callithrix jacchus; assay type: ADME, organism-based, Plasma; conditions: marmoset, in vivo, 336 h
[13] = Cmax of aliskiren hemifumarate following 8 day once-daily dosing of SPP100B oral solution at 80 mg level studied on day 8 in men; assay type: ADME, organism-based; conditions: male, human, plasma
[14] = Cmax (0-168h) of unlabeled aliskiren hemifumarate following single oral administration of aliskiren hemifumarate at 3 mg.Kg-1 level in marmoset; assay type: ADME, organism-based, Callithrix jacchus, Plasma; conditions: in vivo
[15] = Plasma clearance (0-168h) of unlabeled aliskiren hemifumarate following single intravenous administration of aliskiren hemifumarate at 1 mg.Kg-1 level in marmoset; assay type: ADME, organism-based, Callithrix jacchus; conditions: in vivo
[16] = Effect of 2 week oral dosing of aliskiren hemifumarate at 10 mg.Kg-1 level on hematological parameter values in female Callithrix jacchus; assay type: toxicity, organism-based, Plasma; conditions: marmoset, in vivo, 336 h
[17] = Cmax normalised (0-168h) of unlabeled aliskiren hemifumarate following single intravenous administration of aliskiren hemifumarate at 1 mg.Kg-1 level in marmoset; assay type: ADME, organism-based, Callithrix jacchus, Plasma; conditions: in vivo
CYP2C19 = CYP2C19 (Homo sapiens, UniProt P33261); assay: Inhibitory activity of 200 uM SPP100 on 1375 Pmoles of cDNA-derived CYP2C19 enzyme in microsome prepared from human lymphoblastoid cell line; assay type: ADME, microsomes; parameters: conc 200 uM, interact cpd conc 50 uM; conditions: probe (S)-mephenytoin (50 uM)
[18] = Excretion of radioactivity (48-72h) in urine following single oral dose of 100 mg.Kg-1 [14C] aliskiren hemifumarate in rat; assay type: ADME, organism-based, Albino HAN:WIST; conditions: in vivo
[19] = Concentration of radioactivity in the colon wall following repeated oral administration of [14C] aliskiren hemifumarate at 100 mg.Kg-1 level studied at 24h after 7th dose in rat; assay type: ADME, organism-based, Albino HAN:WIST; conditions: in vivo
[20] = Biliary elimination of aliskiren following single intravenous dose of [14C] aliskiren hemifumarate at 10 mg.Kg-1 level in mouse; assay type: ADME, organism-based, TgRasH2, Bile; conditions: in vivo
[21] = AUC (0-96 or 0-168h) of total radioactivity following single oral administration of [14C] aliskiren hemifumarate at 3 mg.Kg-1 level in marmoset; assay type: ADME, organism-based, Callithrix jacchus, Plasma; conditions: in vivo
[22] = Excretion of radioactivity (0-96h) in faeces following single intravenous dose of 10 mg.Kg-1 [14C] aliskiren hemifumarate in rat; assay type: ADME, organism-based, Albino HAN:WIST, Feces; conditions: in vivo
Cytochrome P450 4F2 = target: T1, Cytochrome P450 4F2 (Homo sapiens, UniProt P78329); assay: Metabolic clearance (ul.min.nmol-1 CYP) of aliskiren hemifumarate for CYP4F2 was determined in human liver microsome incubated with [14C]SPP100 hemifumarate; assay type: ADME; conditions: microsomes
T1 sequence (P78329 whole entry): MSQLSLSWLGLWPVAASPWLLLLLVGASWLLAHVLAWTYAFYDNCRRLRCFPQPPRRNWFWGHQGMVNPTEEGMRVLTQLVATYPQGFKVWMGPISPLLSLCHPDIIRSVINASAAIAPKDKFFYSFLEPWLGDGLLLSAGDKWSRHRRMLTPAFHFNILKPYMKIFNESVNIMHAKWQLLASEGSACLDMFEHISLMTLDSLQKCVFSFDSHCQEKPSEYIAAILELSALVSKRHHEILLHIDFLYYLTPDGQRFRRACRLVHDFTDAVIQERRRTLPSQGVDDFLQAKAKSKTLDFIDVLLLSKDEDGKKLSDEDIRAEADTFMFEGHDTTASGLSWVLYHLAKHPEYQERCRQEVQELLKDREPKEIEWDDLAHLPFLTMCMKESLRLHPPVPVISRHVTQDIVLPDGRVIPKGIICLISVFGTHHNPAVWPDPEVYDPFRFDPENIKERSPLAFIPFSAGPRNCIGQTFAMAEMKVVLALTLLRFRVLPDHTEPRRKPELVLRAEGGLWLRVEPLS

[23] = Excretion of radioactivity (0-24h) in faeces following single oral dose of 500 mg.Kg-1 [14C] aliskiren hemifumarate in mouse; assay type: ADME, organism-based, TgRasH2, Feces; conditions: in vivo
Cytochrome P450 3A5 = Cytochrome P450 3A5 (Homo sapiens, UniProt P20815); assay: Metabolic clearance (ul.min.nmol-1 CYP) of aliskiren hemifumarate for CYP3A5 was determined in human liver microsome incubated with [14C]SPP100 hemifumarate; assay type: ADME; conditions: microsomes
[24] = Apparent Km value of metabolism of [14C] aliskiren hemifumarate studied in human liver microsome; assay type: ADME; conditions: microsomes
[25] = Excretion (0-168h) of 14C-radioactivity in urine following single oral dose of 300 mg [14C]SPP100 studied in healthy men; assay type: ADME, organism-based; conditions: human, in vivo, at 300 mg
Cytochrome P450 2E1 = Cytochrome P450 2E1 (Homo sapiens, UniProt P05181); assay: Metabolic clearance (ul.min.nmol-1 CYP) of aliskiren hemifumarate for CYP2E1 was determined in human liver microsome incubated with [14C]SPP100 hemifumarate; assay type: ADME; conditions: microsomes
[26] = Tmax (0-168h) of total radioactivity following single intravenous administration of [14C] aliskiren hemifumarate at 1 mg.Kg-1 level in marmoset; assay type: ADME, organism-based, Callithrix jacchus, Plasma; conditions: in vivo
[27] = Mean excretion of radioactivity (72-96h) in urine and faeces following single oral dose of 100 mg.Kg-1 [14C] aliskiren hemifumarate in rat; assay type: ADME, organism-based, Albino HAN:WIST, Urine/Feces; conditions: in vivo
[28] = Cmax normalised (0-168h) of total radioactivity following single oral administration of [14C] aliskiren hemifumarate at 3 mg.Kg-1 level in marmoset; assay type: ADME, organism-based, Callithrix jacchus, Plasma; conditions: in vivo

hERG (KCNH2), sequence (Q12809 whole entry): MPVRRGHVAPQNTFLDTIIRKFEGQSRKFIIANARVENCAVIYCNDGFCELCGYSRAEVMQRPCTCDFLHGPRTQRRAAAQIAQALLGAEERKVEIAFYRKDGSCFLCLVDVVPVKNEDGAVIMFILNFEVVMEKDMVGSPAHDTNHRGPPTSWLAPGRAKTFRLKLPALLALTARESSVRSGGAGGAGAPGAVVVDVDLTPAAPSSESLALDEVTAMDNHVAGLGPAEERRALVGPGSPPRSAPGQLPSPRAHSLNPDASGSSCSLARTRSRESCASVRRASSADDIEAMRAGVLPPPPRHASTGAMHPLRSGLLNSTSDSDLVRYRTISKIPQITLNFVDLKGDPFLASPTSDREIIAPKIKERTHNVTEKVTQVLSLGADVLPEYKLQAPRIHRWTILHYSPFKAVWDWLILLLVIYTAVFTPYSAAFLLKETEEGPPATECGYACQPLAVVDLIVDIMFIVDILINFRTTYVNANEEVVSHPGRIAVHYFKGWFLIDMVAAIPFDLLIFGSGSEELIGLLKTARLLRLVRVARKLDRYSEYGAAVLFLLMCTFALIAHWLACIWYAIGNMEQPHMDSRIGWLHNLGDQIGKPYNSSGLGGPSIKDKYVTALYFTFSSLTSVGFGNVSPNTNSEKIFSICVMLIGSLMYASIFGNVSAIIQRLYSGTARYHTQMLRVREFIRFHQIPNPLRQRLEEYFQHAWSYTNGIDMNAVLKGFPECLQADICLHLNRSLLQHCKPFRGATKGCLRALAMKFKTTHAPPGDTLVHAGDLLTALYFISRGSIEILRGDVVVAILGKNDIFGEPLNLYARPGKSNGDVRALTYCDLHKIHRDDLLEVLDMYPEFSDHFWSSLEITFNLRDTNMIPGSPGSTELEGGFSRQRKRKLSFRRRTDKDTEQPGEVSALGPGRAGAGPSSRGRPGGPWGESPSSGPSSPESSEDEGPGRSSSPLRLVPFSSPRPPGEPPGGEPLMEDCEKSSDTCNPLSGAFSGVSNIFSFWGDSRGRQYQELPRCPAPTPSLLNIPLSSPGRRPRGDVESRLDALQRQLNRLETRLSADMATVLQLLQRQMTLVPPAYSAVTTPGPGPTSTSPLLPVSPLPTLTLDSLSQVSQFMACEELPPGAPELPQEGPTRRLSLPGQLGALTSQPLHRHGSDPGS
Cytochrome P450 3A5, sequence (P20815 whole entry): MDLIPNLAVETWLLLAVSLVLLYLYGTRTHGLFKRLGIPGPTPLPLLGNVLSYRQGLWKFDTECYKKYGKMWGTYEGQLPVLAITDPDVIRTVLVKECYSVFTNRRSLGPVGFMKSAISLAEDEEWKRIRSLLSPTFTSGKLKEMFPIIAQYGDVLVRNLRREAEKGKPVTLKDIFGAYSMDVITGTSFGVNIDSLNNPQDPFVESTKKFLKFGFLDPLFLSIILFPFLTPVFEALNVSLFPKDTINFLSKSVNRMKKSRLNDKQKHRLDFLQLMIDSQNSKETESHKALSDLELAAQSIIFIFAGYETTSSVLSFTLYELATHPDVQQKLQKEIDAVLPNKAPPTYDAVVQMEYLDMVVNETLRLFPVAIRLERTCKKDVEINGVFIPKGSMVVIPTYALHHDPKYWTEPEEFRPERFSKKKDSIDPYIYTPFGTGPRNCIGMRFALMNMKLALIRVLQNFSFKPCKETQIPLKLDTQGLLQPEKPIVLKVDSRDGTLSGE
Cytochrome P450 2E1, sequence (P05181 whole entry): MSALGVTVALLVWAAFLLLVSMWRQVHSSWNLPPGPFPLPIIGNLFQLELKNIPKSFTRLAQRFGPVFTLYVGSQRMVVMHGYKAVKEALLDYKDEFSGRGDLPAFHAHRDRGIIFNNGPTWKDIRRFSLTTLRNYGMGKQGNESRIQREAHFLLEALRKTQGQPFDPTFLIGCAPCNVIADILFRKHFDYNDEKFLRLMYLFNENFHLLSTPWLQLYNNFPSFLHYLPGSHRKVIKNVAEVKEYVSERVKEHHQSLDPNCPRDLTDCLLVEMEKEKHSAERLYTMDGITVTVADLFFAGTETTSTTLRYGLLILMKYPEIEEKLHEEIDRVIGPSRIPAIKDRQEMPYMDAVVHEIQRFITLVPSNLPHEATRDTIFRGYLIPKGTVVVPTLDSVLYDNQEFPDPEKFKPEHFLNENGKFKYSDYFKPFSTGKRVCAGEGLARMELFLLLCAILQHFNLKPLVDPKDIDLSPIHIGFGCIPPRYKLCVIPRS
CYP2C19, sequence (P33261 whole entry): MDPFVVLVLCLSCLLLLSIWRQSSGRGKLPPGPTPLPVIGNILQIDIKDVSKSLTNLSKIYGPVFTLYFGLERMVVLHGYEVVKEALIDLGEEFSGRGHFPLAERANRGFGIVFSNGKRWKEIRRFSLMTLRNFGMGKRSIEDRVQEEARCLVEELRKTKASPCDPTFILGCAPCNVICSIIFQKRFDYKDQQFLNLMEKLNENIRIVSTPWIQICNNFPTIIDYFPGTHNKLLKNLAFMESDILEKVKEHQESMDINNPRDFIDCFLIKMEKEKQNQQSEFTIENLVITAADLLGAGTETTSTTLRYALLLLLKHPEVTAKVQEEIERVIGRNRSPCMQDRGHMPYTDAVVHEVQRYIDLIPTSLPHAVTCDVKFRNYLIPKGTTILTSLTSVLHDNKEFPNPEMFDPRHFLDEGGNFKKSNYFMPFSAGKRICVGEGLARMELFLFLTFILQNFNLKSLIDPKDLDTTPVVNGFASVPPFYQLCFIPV

In the case of `COCCCOc1cc(C[C@@H](C[C@H](N)[C@@H](O)C[C@H](C(=O)NCC(C)(C)C(N)=O)C(C)C)C(C)C)ccc1OC.COCCCOc1cc(C[C@@H](C[C@H](N)[C@@H](O)C[C@H](C(=O)NCC(C)(C)C(N)=O)C(C)C)C(C)C)ccc1OC.O=C(O)/C=C/C(=O)O` [ALISKIREN FUMARATE], the AUC normalised [1] is reported as 2.14 ((ug.h.ml-1)/(mg/kg), the Cmax normalised [2] is reported as 0.615 (ng/mL)/(mg/kg/day) and the AUC(0-t) at 24 h [3] is reported as 58100 ng·h/mL. The Change in hematology [4] was “OUTCOME = Hematological parameter values did not differ from control values. No animals died during the study”, the Tmax [5] was 2.7 h and the Change in hematology [6] was “OUTCOME = Hematological parameter values did not differ from control values. No animals died during the study”. The Change in spermatogenesis [7] was “OUTCOME = No abnormalities. No animals died during the study”, the Tmax [8] was 1 h and the Tmax [9] was 1 h. The Cmax [10] was 21.5 ng/mL, the Cmax normalised [11] was 0.242 (ng/mL)/(mg/kg/day) and the inhibition at 1000 µM (hERG (KCNH2)) was 32%. For the same compound, the Cmax normalised [12] was 0.126 (ug/ml)/(mg/kg), the Cmax [13] was 12.7 ng/mL and the Cmax [14] was 395 nM. The Plasma clearance [15] was 0.036 L·h/kg, the Change in hematology [16] was “OUTCOME = Hematological parameter values did not differ from control values. No animals died during the study” and the Cmax normalised [17] was 14.24 (umol/L)/(mg/kg).
For `COCCCOc1cc(C[C@@H](C[C@H](N)[C@@H](O)C[C@H](C(=O)NCC(C)(C)C(N)=O)C(C)C)C(C)C)ccc1OC`, the inhibition at 200 µM (CYP2C19) was -15.4%.
For `COCCCOc1cc(C[C@@H](C[C@H](N)[C@@H](O)C[C@H](C(=O)NCC([14CH3])([14CH3])C(N)=O)C(C)C)C(C)C)ccc1OC.O=C(O)/C=C/C(=O)O`, the Radiolabel recovery [18] was 0.04%, the Radiolabel recovery [19] was “OUTCOME = Observed, VALUE = Highest radioactivity concentration was observed” and the Radiolabel recovery [20] was “OUTCOME = Observed, VALUE = Elimination of aliskiren occurred mainly via the biliary or faecal route”. It also gave an AUC [21] of 4.84 µM·h, a Radiolabel recovery [22] of 90% and a CL (Cytochrome P450 4F2) of 7.9 µL·min/nmol. The Radiolabel recovery [23] was “OUTCOME = Observed/Most of the radioactivity administered was excreted during first 24h after administration and the main route of excretion was the faecal pathway”, the CL (Cytochrome P450 3A5) was 47 µL·min/nmol and the Km [24] was 43.8 µM. The Radiolabel recovery [25] was 0.6%, the CL (Cytochrome P450 2E1) was 1.4 µL·min/nmol and the Tmax [26] was 4.98 min. For the same compound, the Radiolabel recovery [27] was 2.54% and the Cmax normalised [28] was 0.12 (umol/L)/(mg/kg).
